Results from PubChem BioAssay AID2060900 (Molecular Pharmacology Branch, DTP, NCI, 2025).

System: 521955-158-R2-J5-PDC complex spheroids, viability
Test: Anticancer human tumor 521955-158-R2-J5-PDC patient-derived pancreatic carcinoma cell line growth inhibition [RAS]
Details: for viability, T/C: stronger effect = lower value; active = viability on the fitted dose curve at most 10% of control; inactive = the rest
Text: RAS pathway inhibitors in Combinations in Complex Spheroids
A high-throughput screen of multi-cell type tumor spheroids was designed to identify active combinations of RAS pathway inhibitors and targeted small molecules. Complex spheroids include a stromal component modeled by human endothelial cells (HUVEC) and fibroblasts modeled by human mesenchymal stem cells (MSCs). The concentration ranges selected for each drug and investigational agent were based upon clinically achievable concentrations if the clinical Cmax of the agent was known.
Compounds. The drugs and investigational agents: abemaciclib (NSC768073), cobimetinib (NSC768068), divarasib (GDC6063, NSC841802), docetaxel (NSC628503), GDC-1971 (RLY-1971, NSC841576), gemcitabine (NSC613327), inavolisib (NSC800729), ipatasertib (NSC767898), KB-0742 (NSC834161), MRTX-1133 (NSC836407), osimertinib (NSC779217), RMC-4630 (NSC839698), RMC-6236 (NSC851965), RMC-6291 (NSC852671), Ro-3306 (NSC812927), sapanisertib (NSC764658), SN-38 (NSC673596), staurosporine (NSC755774), SY5609 (NSC837396), and tovorafenib (DAY101, NSC766906), were obtained from the National Cancer Institute (NCI) Developmental Therapeutics Program Chemical Repository. The FDA-approved anticancer drug set is available from the NCI Developmental Therapeutics Program. […] The stock solutions were prepared in dimethyl sulfoxide (DMSO, Sigma-Aldrich, St. Louis, MO, cat. D2650) at 800-fold the tested concentration and stored at -70 degrees C prior to their use. All drugs and investigational agents were tested over a range starting from a high concentration at or near the clinical Cmax and decreasing in half-log increments. If the clinical Cmax for an agent had not been determined, the highest concentration tested was 10 microM.
Cell Culture. All cells were maintained in an incubator at 37 degrees C and 5% CO2 with 95% humidity. The PDC lines were cultured according to standard operating procedures established by the NCI PDMR. All PDCs were thawed and cultured in Matrigel-coated flasks prepared with a working solution of 1X Ham's F-12 nutrient mix, without supplementation (Invitrogen, Waltham, MA, cat. 11765054), 100 U/mL penicillin-streptomycin (Invitrogen, cat. 15140122), and 2.5% Matrigel (Corning Inc., Corning, NY, cat. 354248) for the first three passages. The 362531-283-R-J2-PDC and 782815-120-R-J1-PDC lines were cultured in 6C/Colon 1B media, which includes advanced DMEM/F-12 (Thermo Fisher Scientific, cat. 12634028), 10 mM HEPES (Thermo Fisher Scientific, cat. 15630080), 1X GlutaMAX supplement (Thermo Fisher Scientific, cat. 35050061), 0.1 mg/mL primocin (InvivoGen, San Diego, CA, cat. ant-pm-2), 10% defined fetal bovine serum, heat inactivated (HyClone Laboratories Inc., Logan, UT, cat. SH30070.03HI), 50% L-WRN conditioned media (ATCC, cat. CRL-3276), 1.25 mM N-Acetyl-L-cysteine (Sigma-Aldrich, cat. A9165), 10 mM nicotinamide (Sigma-Aldrich, cat. N0636), 1X B-27 supplement (Thermo Fisher Scientific, cat. 17504044), 1X N-2 supplement (Thermo Fisher Scientific, cat. 17502048), 50 ng/mL human EGF (Thermo Fisher Scientific, cat. PHG0311), and 10 microM Y-27632 dihydrochloride (Tocris Bioscience, cat. 1254). The K12877-001-R-J1-PDC line was cultured in 6I media, which includes all 6C/Colon 1B media plus 10 ng/mL human FGF-10 (PeproTech, cat. 100-26), 1 ng/mL human FGF-2 (PeproTech, cat. 100-18B), 1 µM prostaglandin E2 (Tocris Bioscience, cat. 2296), […] hydrocortisone (Sigma-Aldrich, cat. H4001), and […] bovine insulin (Sigma-Aldrich, cat. I6634). The K86415-001-R-J1-PDC line was cultured in 6D media, which includes all 6C/Colon 1B media components minus the L-WRN conditioned media. The 485176-168-R4-J1-PDC was cultured in PANC media, which includes all 6C/Colon 1B media plus 100 ng/mL human FGF-10 (PeproTech, cat. 100-26), 500 nM SB-431542 (Selleckchem, cat. S1067), and 10 nM gastrin (Tocris Bioscience, cat. 3006). […]

[1] = curve of first compound, second compound 0.000949 µM
[2] = curve of first compound, second compound 0.003 µM
[3] = curve of first compound, second compound 0.00949 µM
[4] = curve of first compound, second compound 0.03 µM
[5] = curve of first compound, second compound 0.0949 µM
[6] = curve of first compound, second compound 0.3 µM
[7] = second compound 0.000949 µM, first compound 0.0316 µM
[8] = second compound 0.000949 µM, first compound 0.1 µM
[9] = second compound 0.000949 µM, first compound 0.316 µM
[10] = second compound 0.000949 µM, first compound 1 µM
[11] = second compound 0.003 µM, first compound 0.0316 µM
[12] = second compound 0.003 µM, first compound 0.1 µM
[13] = second compound 0.003 µM, first compound 0.316 µM
[14] = second compound 0.003 µM, first compound 1 µM
[15] = second compound 0.00949 µM, first compound 0.0316 µM
[16] = second compound 0.00949 µM, first compound 0.1 µM
[17] = second compound 0.00949 µM, first compound 0.316 µM
[18] = second compound 0.00949 µM, first compound 1 µM
[19] = second compound 0.03 µM, first compound 0.0316 µM
[20] = second compound 0.03 µM, first compound 0.1 µM
[21] = second compound 0.03 µM, first compound 0.316 µM
[22] = second compound 0.03 µM, first compound 1 µM
[23] = second compound 0.0949 µM, first compound 0.0316 µM
[24] = second compound 0.0949 µM, first compound 0.1 µM
[25] = second compound 0.0949 µM, first compound 0.316 µM
[26] = second compound 0.0949 µM, first compound 1 µM
[27] = second compound 0.3 µM, first compound 0.0316 µM
[28] = second compound 0.3 µM, first compound 0.1 µM
[29] = second compound 0.3 µM, first compound 0.316 µM
[30] = second compound 0.3 µM, first compound 1 µM
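Also: compound exposure lasted seven days before the viability read.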
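For viability, T/C in this document: spheroids also contain HUVEC endothelial cells and mesenchymal stem cells as stroma.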

CC(C)NCC(C(=O)N1CCN(c2ncnc3c2C(C)CC3O)CC1)c1ccc(Cl)cc1 (stereo unspecified) + CCn1c(-c2cccnc2C(C)OC)c2c3cc(ccc31)N1CCOC(CC(NC(=O)C(C(C)C)N(C)C(=O)C3(F)CCN(C(=O)C#CC(C)(C)N(C)C)CC3)C(=O)N3CCCC(N3)C(=O)OCC(C)(C)C2)C1
8.61 µM: IC50 [6]
inactive: viability, T/C [7] 84.8% | viability, T/C [8] 85.3% | viability, T/C [9] 84.9% | viability, T/C [10] 62.7% | viability, T/C (second compound 0.000949 µM, first compound 3.16 µM) 68% | viability, T/C (second compound 0.000949 µM, first compound 10 µM) 72% | viability, T/C [11] 81.6% | viability, T/C [12] 92.5% | viability, T/C [13] 77.4% | viability, T/C [14] 56.1% | viability, T/C (second compound 0.003 µM, first compound 3.16 µM) 62.4% | viability, T/C (second compound 0.003 µM, first compound 10 µM) 79.1% | viability, T/C [15] 88.7% | viability, T/C [16] 91.7% | viability, T/C [17] 78.7% | viability, T/C [18] 53% | viability, T/C (second compound 0.00949 µM, first compound 3.16 µM) 60.1% | viability, T/C (second compound 0.00949 µM, first compound 10 µM) 68% | viability, T/C [19] 83.9% | viability, T/C [20] 100% | viability, T/C [21] 83% | viability, T/C [22] 57.5% | viability, T/C (second compound 0.03 µM, first compound 3.16 µM) 68.3% | viability, T/C (second compound 0.03 µM, first compound 10 µM) 56.8% | viability, T/C [23] 93.6% | viability, T/C [24] 92% | viability, T/C [25] 82.4% | viability, T/C [26] 64.3% | viability, T/C (second compound 0.0949 µM, first compound 3.16 µM) 61.3% | viability, T/C (second compound 0.0949 µM, first compound 10 µM) 59.9% | viability, T/C [27] 67.2% | viability, T/C [28] 76.6% | viability, T/C [29] 67.9% | viability, T/C [30] 57.2% | viability, T/C (second compound 0.3 µM, first compound 3.16 µM) 57.4% | viability, T/C (second compound 0.3 µM, first compound 10 µM) 49.6%
> 10 µM: IC50 [1] | IC50 [2] | IC50 [3] | IC50 [4] | IC50 [5]

C=CC(=O)Nc1cc(Nc2nccc(-c3cn(C)c4ccccc34)n2)c(OC)cc1N(C)CCN(C)C + CCn1c(-c2cccnc2C(C)OC)c2c3cc(ccc31)N1CCOC(CC(NC(=O)C(C(C)C)N(C)C(=O)C3(F)CCN(C(=O)C#CC(C)(C)N(C)C)CC3)C(=O)N3CCCC(N3)C(=O)OCC(C)(C)C2)C1
0.504 µM: IC50 [1]
0.441 µM: IC50 [5]
0.176 µM: IC50 [6]
0.493 µM: IC50 [3]
inactive: viability, T/C (second compound 0.000949 µM, first compound 0.00316 µM) 89.9% | viability, T/C (second compound 0.000949 µM, first compound 0.01 µM) 84.1% | viability, T/C [7] 84.1% | viability, T/C [8] 72.6% | viability, T/C [9] 59% | viability, T/C [10] 37.1% | viability, T/C (second compound 0.003 µM, first compound 0.00316 µM) 110% | viability, T/C (second compound 0.003 µM, first compound 0.01 µM) 82.6% | viability, T/C [11] 71.8% | viability, T/C [12] 65.3% | viability, T/C [13] 59.2% | viability, T/C [14] 44.1% | viability, T/C (second compound 0.00949 µM, first compound 0.00316 µM) 101% | viability, T/C (second compound 0.00949 µM, first compound 0.01 µM) 91.5% | viability, T/C [15] 88.6% | viability, T/C [16] 75.4% | viability, T/C [17] 61.4% | viability, T/C [18] 34.1% | viability, T/C (second compound 0.03 µM, first compound 0.00316 µM) 88.6% | viability, T/C (second compound 0.03 µM, first compound 0.01 µM) 79.2% | viability, T/C [19] 80% | viability, T/C [20] 70.8% | viability, T/C [21] 51.8% | viability, T/C [22] 41% | viability, T/C (second compound 0.0949 µM, first compound 0.00316 µM) 86.3% | viability, T/C (second compound 0.0949 µM, first compound 0.01 µM) 95.8% | viability, T/C [23] 70% | viability, T/C [24] 70.2% | viability, T/C [25] 56.6% | viability, T/C [26] 36.9% | viability, T/C (second compound 0.3 µM, first compound 0.00316 µM) 70.2% | viability, T/C (second compound 0.3 µM, first compound 0.01 µM) 79.2% | viability, T/C [27] 72% | viability, T/C [28] 55.4% | viability, T/C [29] 45.3% | viability, T/C [30] 36.9%
0.416 µM: IC50 [4]
0.755 µM: IC50 [2]

CCC(CC)c1cc(NC2CCC(N)C2)n2nccc2n1 (stereo unspecified)
1.97 µM [middle of 4 runs]: IC50 (curve of compound)
inactive: viability, T/C (compound 0.0316 µM) 110% [middle of 4 runs] | viability, T/C (compound 0.1 µM) 91.2% [middle of 4 runs] | viability, T/C (compound 0.316 µM) 122% [middle of 4 runs] | viability, T/C (compound 1 µM) 111% [middle of 4 runs]
10.2% [middle of 4 runs]: viability, T/C (compound 10 µM)
9.87% [middle of 4 runs]: viability, T/C (compound 3.16 µM)
